Measured values reported in PMC9792171, “Design and synthesis of new thiazolidinone/uracil derivatives as antiproliferative agents targeting EGFR and/or BRAF^V600E” (Frontiers in Chemistry, 2022).

What was measured:
[1] = test system: four human cancer cell lines (A-549, MCF-7, Panc-1, HT-29); assay: Antiproliferative MTT assay, average of four cancer cell lines (GI50); format: cell-based; settings: for IC50: Homo sapiens, average of A-549, MCF-7, Panc-1, HT-29
Description: Using the MTT assay ([Abdelrahman et al., 2017]; [El-Sherief et al., 2018]) and doxorubicin as the reference drug, 3a-f and 5a-l were tested for antiproliferative activity against four human cancer cell lines: Panc-1 (pancreas cancer cell line), MCF-7 (breast cancer cell line), HT-29 (colon cancer cell line), and A-549 (epithelial cancer cell line). […]
(§1) To explore the antiproliferative potential of compounds MTT assay was performed according to previously reported procedure (El-Sherief, H.A.M., et al., 2018; Abdelrahman, M. H., et al., 2017) using different cell lines to explore the antiproliferative potential of compounds propidium iodide fluorescence assay was performed using different cell lines. To calculate the total nuclear DNA, a fluorescent dye (propidium iodide, PI) is used which can attach to the DNA, thus offering a quick and precise technique. PI cannot pass through the cell membrane and its signal intensity can be considered as directly proportional to quantity of cellular DNA. Cells whose cell membranes are damaged or have changed permeability are counted as dead ones. The assay was performed by seeding the cells of different cell lines at a density of 3000-7500 cells/well (in 200µl medium) in culture plates followed by incubation for 24h at 37 °C in humidified 5% CO2/95% air atmospheric conditions. The medium was removed; the compounds were added to the plates at 10 µM concentrations (in 0.1% DMSO) in triplicates, followed by incubation for 48 h. DMSO (0.1%) was used as control. After incubation, medium was removed followed by the addition of PI (25 µl, 50µg/mL in water/medium) to each well of the plates. At -80 °C, the plates were allowed to freeze for 24 h, followed by thawing at 25 °C. A fluorometer (Polar-Star BMG Tech) was used to record the readings at excitation and emission wavelengths of 530 and 620 nm for each well. The percentage cytotoxicity of compounds was calculated using the following formula: […]

[2] = test system: Panc-1 (pancreas cancer cell line); assay: Antiproliferative MTT assay, Panc-1; format: cell-based; settings: Homo sapiens; Panc-1, MTT; read-out: Antiproliferative activity IC50 ± SEM (nM) Panc-1
Description: (§2) Using the MTT assay ([Abdelrahman et al., 2017]; [El-Sherief et al., 2018]) and doxorubicin as the reference drug, 3a-f and 5a-l were tested for antiproliferative activity against four human cancer cell lines: Panc-1 (pancreas cancer cell line), MCF-7 (breast cancer cell line), HT-29 (colon cancer cell line), and A-549 (epithelial cancer cell line).
as §1

[3] = test system: MCF-7 (breast cancer cell line); assay: Antiproliferative MTT assay, MCF-7; format: cell-based; settings: Homo sapiens, MCF7; MCF-7, MTT; read-out: Antiproliferative activity IC50 ± SEM (nM) MCF-7
Description: as §2, §1

[4] = test system: A-549 (epithelial cancer cell line); assay: Antiproliferative MTT assay, A-549; format: cell-based; settings: Homo sapiens, A549; A-549, MTT; read-out: Antiproliferative activity IC50 ± SEM (nM) A-549
Description: as §2, §1

[5] = test system: HT-29 (colon cancer cell line); assay: Antiproliferative MTT assay, HT-29; format: cell-based; settings: Homo sapiens; HT-29, MTT; read-out: Antiproliferative activity IC50 ± SEM (nM) HT-29
Description: as §2, §1

[6] = Cell viability assay (MTT), MCF-10A; format: cell-based; settings: human, MCF-10A mammary gland epithelial cells, MCF-10A cells, incubated 4 days
Description: To test the viability of new compounds, the human mammary gland epithelial (MCF-10A) cell line was used ([Youssif et al., 2019]; [Mahmoud et al., 2022]). MCF-10A cells were incubated with compounds 3a-f and 5a-l for 4 days before being tested for viability using the MTT assay.
MTT assay was carried out to study the effect of compounds on mammary epithelial cells (MCF-10A) (Youssif, B. G. M. et al., 2019; Mahmoud, M. A., et al., 2022). The medium in which cells were propagated contained Dulbecco's modified Eagle's medium (DMEM)/ Ham's F-12 medium (1:1) supplemented with epidermal growth factor (20 ng/mL), hydrocortisone (500 ng/mL), insulin (10 μg/mL), 2 mM glutamine and 10% foetal calf serum. After every 2-3 days, the cells were passaged using trypsin ethylenediamine tetra acetic acid (EDTA). The cells were seeded at a density of 10^4 cells mL^-1 in flat-bottomed culture plates containing 96 wells each. After 24 h, medium was removed from the plates and the compounds in (in 0.1% DMSO) were added (in 200 μL medium to yield a final concentration of 0.1% v/v) to the wells of plates. A single compound was designated with four wells followed by incubation of plates for 96h at 37°C. After incubation, medium was removed completely from the plates followed by addition of MTT (0.4 mg/mL in medium) to each well and subsequent incubation of plates for 3h. MTT (along with the medium) was removed and DMSO (150μL) was added to each well of the culture plates, followed by vortexing and subsequent measurement of absorbance (at 540 nm) using microplate reader. The data are shown as percentage inhibition of proliferation in comparison with controls containing 0.1% DMSO.

EGFR = target: T1, EGFR (Homo sapiens, UniProt P00533); set-up: method as in Aziz et al., 2021; settings: ref Aziz et al., 2021; cited from earlier work
T1 construct: EGFR cytoplasmic domain (EGFR-CD, amino acids 645–1186); His6 (N); made in house; host or cells: Sf-9 insect cells (baculovirus; pBlueBacHis2B and pFASTBacHTc)
T1 sequence (P00533 669-1210): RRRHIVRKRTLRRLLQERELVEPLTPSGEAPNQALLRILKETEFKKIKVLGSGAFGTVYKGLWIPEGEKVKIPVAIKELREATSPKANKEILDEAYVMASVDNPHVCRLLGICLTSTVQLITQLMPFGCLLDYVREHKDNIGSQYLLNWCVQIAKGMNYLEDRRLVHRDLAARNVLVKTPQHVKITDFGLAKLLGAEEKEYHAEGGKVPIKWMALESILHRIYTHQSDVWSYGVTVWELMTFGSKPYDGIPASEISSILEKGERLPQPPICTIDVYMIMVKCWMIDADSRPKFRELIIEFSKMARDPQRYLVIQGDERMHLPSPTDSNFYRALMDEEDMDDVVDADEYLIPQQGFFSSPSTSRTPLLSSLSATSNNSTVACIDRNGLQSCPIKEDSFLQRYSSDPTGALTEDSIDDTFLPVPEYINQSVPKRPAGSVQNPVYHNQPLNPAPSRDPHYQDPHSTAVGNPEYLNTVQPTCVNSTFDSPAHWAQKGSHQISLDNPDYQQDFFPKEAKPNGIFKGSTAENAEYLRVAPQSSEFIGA

[7] = test system: lung cancer (A549) cell line; set-up: method as in Aziz et al., 2021; settings: ref Aziz et al., 2021; read-out: IC50 against lung cancer (A549) cell line; cited from earlier work
[8] = test system: human lung carcinoma cell lines; set-up: method as in Xiong et al., 2008; settings: panel of human lung carcinoma cell lines; ref Xiong et al., 2008; read-out: IC50, inhibition of cell proliferation; cited from earlier work

Molecule `CCOC(=O)/C=C1\S/C(=N\c2c[nH]c(=O)[nH]c2=O)N(C)C1=O` [Compound 5e, (Z)-Ethyl-2-((Z)-2-((2,4-dioxo-1,2,3,4-tetrahydropyrimidin-5-yl)imino)-3-methyl-4-oxo-thiazolidin-5-ylidene)acetate] has a melting point of 302 to 304 °C, an IC50 [1] of 7100 nM and an IC50 [2] of 7300 ± 700 nM. It also gave an IC50 [3] of 6700 ± 700 nM, an IC50 [4] of 7200 ± 600 nM and an IC50 [5] of 7200 ± 700 nM. The viability at 4 days, 50 µM [6] was 86%.
Molecule `COc1cccc2c1C(=O)c1c(O)c3c(c(O)c1C2=O)C[C@@](O)(C(=O)CO)C[C@@H]3O[C@H]1C[C@H](N)[C@H](O)[C@H](C)O1` [Doxorubicin, reference compound] has an IC50 [1] of 1100 nM, an IC50 [2] of 1400 ± 100 nM and an IC50 [3] of 900 ± 100 nM. The IC50 [4] was 1200 ± 100 nM and the IC50 [5] was 1000 ± 100 nM.
For `C=CCN1C(=O)/C(=C/C(=O)OCC)S/C1=N\c1c[nH]c(=O)[nH]c1=O` [Compound 5f, (Z)-Ethyl-2-((Z)-3-allyl-2-((2,4-dioxo-1,2,3,4-tetrahydropyrimidin-5-yl)imino)-4-oxo-thiazolidin-5-ylidene)acetate], the melting point was 310 to 312 °C, the IC50 [1] was 8500 nM and the IC50 [2] was 8800 ± 700 nM. The IC50 [3] was 7900 ± 700 nM, the IC50 [4] was 8200 ± 700 nM and the IC50 [5] was 8900 ± 700 nM. The viability at 4 days, 50 µM [6] was 89%.
For `O=C1N=C(Nn2c(-c3ccccc3)nc3ccccc3c2=O)S/C1=C/c1ccccc1` [Compound III], the IC50 (EGFR) is listed as 0.065 µM and the IC50 [7] is listed as 0.72 µM.
Molecule `O=c1[nH]cc(NC(=S)Nc2ccccc2)c(=O)[nH]1` [Compound 3a, 1-(2,4-Dioxo-1,2,3,4-tetrahydropyrimidin-5-yl)-3-phenylthiourea] has a melting point of 340 to 342 °C, an IC50 [1] of 8800 nM and an IC50 [2] of 8800 ± 800 nM. For the same molecule, the IC50 [3] was 8500 ± 800 nM, the IC50 [4] was 8900 ± 800 nM and the IC50 [5] was 9100 ± 800 nM. It also gave a viability at 4 days, 50 µM [6] of 86%.
In the case of `O=c1[nH]cc(NC(=S)NCc2ccccc2)c(=O)[nH]1` [Compound 3d, 1-Benzyl-3-(2,4-dioxo-1,2,3,4-tetrahydropyrimidin-5-yl)thiourea], the melting point is reported as 350 to 352 °C (dec.), the IC50 [1] is reported as 4150 nM and the IC50 [2] is reported as 4300 ± 400 nM. It also gave an IC50 [3] of 3900 ± 400 nM, an IC50 [4] of 4100 ± 400 nM and an IC50 [5] of 4300 ± 400 nM. It also gave a viability at 4 days, 50 µM [6] of 91%.
For `Cc1ccc(NC(=S)Nc2c[nH]c(=O)[nH]c2=O)cc1` [Compound 3b, 1-(2,4-Dioxo-1,2,3,4-tetrahydropyrimidin-5-yl)-3-(p-tolyl)thiourea], the melting point was 338 to 340 °C, the IC50 [1] was 3800 nM and the IC50 [2] was 4100 ± 300 nM. The IC50 [3] was 3600 ± 300 nM, the IC50 [4] was 3700 ± 300 nM and the IC50 [5] was 3900 ± 300 nM. For the same molecule, the viability at 4 days, 50 µM [6] was 87%.
For `CCOC(=O)/C=C1\S/C(=N\c2c[nH]c(=O)[nH]c2=O)N(c2ccccc2)C1=O` [Compound 5a, (Z)-Ethyl-2-((Z)-2-((2,4-dioxo-1,2,3,4-tetrahydropyrimidin-5-yl)imino)-4-oxo-3-phenyl-thiazolidin-5-ylidene)acetate], the melting point was 320 to 322 °C, the IC50 [1] was 3450 nM and the IC50 [2] was 3300 ± 300 nM. For the same molecule, the IC50 [3] was 3100 ± 300 nM, the IC50 [4] was 3500 ± 300 nM and the IC50 [5] was 3900 ± 300 nM. It also gave a viability at 4 days, 50 µM [6] of 91%.
`COC(=O)/C=C1\S/C(=N\c2c[nH]c(=O)[nH]c2=O)N(C)C1=O` [Compound 5k, (Z)-Methyl-2-((Z)-2-((2,4-dioxo-1,2,3,4-tetrahydropyrimidin-5-yl)imino)-3-methyl-4-oxothiazolidin-5-ylidene)acetate] gave a melting point of 300 to 302 °C, an IC50 [1] of 5700 nM and an IC50 [2] of 5900 ± 500 nM. The IC50 [3] was 5100 ± 500 nM, the IC50 [4] was 5700 ± 600 nM and the IC50 [5] was 6200 ± 600 nM. The viability at 4 days, 50 µM [6] was 89%.
`COC(=O)/C=C1\S/C(=N\c2c[nH]c(=O)[nH]c2=O)N(c2ccccc2)C1=O` [Compound 5g, (Z)-Methyl-2-((Z)-2-((2,4-dioxo-1,2,3,4-tetrahydropyrimidin-5-yl)imino)-4-oxo-3-phenyl-thiazolidin-5-ylidene)acetate] gave a melting point of 302 to 304 °C, an IC50 [1] of 2500 nM and an IC50 [2] of 2900 ± 200 nM. For the same molecule, the IC50 [3] was 2200 ± 200 nM, the IC50 [4] was 2700 ± 200 nM and the IC50 [5] was 2200 ± 200 nM. It also gave a viability at 4 days, 50 µM [6] of 87%.
With `C=CCN1C(=O)/C(=C/C(=O)OC)S/C1=N\c1c[nH]c(=O)[nH]c1=O` [Compound 5l, (Z)-Methyl-2-((Z)-3-allyl-2-((2,4-dioxo-1,2,3,4-tetrahydropyrimidin-5-yl)imino)-4-oxothiazolidin-5-ylidene)acetate] the melting point was 314 to 316 °C, the IC50 [1] was 6400 nM and the IC50 [2] was 6400 ± 600 nM. It also gave an IC50 [3] of 6500 ± 600 nM, an IC50 [4] of 6000 ± 600 nM and an IC50 [5] of 6600 ± 600 nM. The viability at 4 days, 50 µM [6] was 86%.
For `CCOC(=O)/C=C1\S/C(=N\c2c[nH]c(=O)[nH]c2=O)N(Cc2ccccc2)C1=O` [Compound 5d, (Z)-Ethyl-2-((Z)-3-benzyl-2-((2,4-dioxo-1,2,3,4-tetrahydropyrimidin-5-yl)imino)-4-oxo-thiazolidin-5-ylidene)acetate], the IC50 [1] was 5150 nM, the “fold less potent than compound 5j (GI50)” value ([1]; ratio of GI50 values) was “approximately 5 fold” and the IC50 [2] was 5500 ± 500 nM. It also gave an IC50 [3] of 4700 ± 400 nM, an IC50 [4] of 4900 ± 500 nM and an IC50 [5] of 5500 ± 500 nM. The viability at 4 days, 50 µM [6] was 86%.
In the case of `C=CCNC(=S)Nc1c[nH]c(=O)[nH]c1=O` [Compound 3f, 1-Allyl-3-(2,4-dioxo-1,2,3,4-tetrahydropyrimidin-5-yl)thiourea], the melting point is reported as 348 to 350 °C (dec.), the IC50 [1] is reported as 3900 nM and the IC50 [2] is reported as 3900 ± 300 nM. The IC50 [3] was 3700 ± 300 nM, the IC50 [4] was 3800 ± 300 nM and the IC50 [5] was 4100 ± 300 nM. For the same molecule, the viability at 4 days, 50 µM [6] was 89%.
Work on `CNC(=S)Nc1c[nH]c(=O)[nH]c1=O` [Compound 3e, 1-(2,4-Dioxo-1,2,3,4-tetrahydropyrimidin-5-yl)-3-methylthiourea] yielded a melting point of 332 to 334 °C, an IC50 [1] of 10000 nM and an IC50 [2] of 9800 ± 800 nM. It also gave an IC50 [3] of 9600 ± 800 nM, an IC50 [4] of 9700 ± 800 nM and an IC50 [5] of 10800 ± 900 nM. The viability at 4 days, 50 µM [6] was 89%.
In the case of `COC(=O)c1ccccc1NC(=S)N(CCN1CCCCC1)Cc1cc2cc(C)ccc2[nH]c1=O` [DC27], the IC50 [8] is listed as 2.5 to 12.9 µM.
